Test results from patent US20220332700A1, “NOVEL APOPTOSIS SIGNAL-REGULATING KINASE 1 INHIBITORS” (MANKIND PHARMA LTD, priority 2019, published 2022).

How the values were obtained:
recombinant ASK1 = target: T1, recombinant ASK1 (Homo sapiens, UniProt Q99683); assay: ASK1 Biochemical Assay (HTRF KinEASE-STK S3); conditions: ATP 100 μM; read-out: Biochemical Assay IC50
T1 construct: purchased Carna Biosciences
In short: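 Recombinant ASK1 (5 ng) preincubated with compound 1 h at 23 °C in MOPS pH 7 buffer with Mg-acetate, DTT, NP40, glycerol, BSA and 1% DMSO. Inhibition calculated against vehicle after substrate-blank subtraction.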

Human ASK1 = target: T2, Human ASK1 (Homo sapiens, UniProt Q99683); assay: ASK1 Cell Based Assay (phospho p38 read out in hASK1 transfected HEK293T-AP1 cells); conditions: HEK293T-AP1 cells, 1 mM hydrogen peroxide, phospho p38; read-out: Cell Based Assay IC50
T2 construct: expressed in transfected cells; host or cells: HEK293T-AP1
T2 sequence (Q99683 1-1374): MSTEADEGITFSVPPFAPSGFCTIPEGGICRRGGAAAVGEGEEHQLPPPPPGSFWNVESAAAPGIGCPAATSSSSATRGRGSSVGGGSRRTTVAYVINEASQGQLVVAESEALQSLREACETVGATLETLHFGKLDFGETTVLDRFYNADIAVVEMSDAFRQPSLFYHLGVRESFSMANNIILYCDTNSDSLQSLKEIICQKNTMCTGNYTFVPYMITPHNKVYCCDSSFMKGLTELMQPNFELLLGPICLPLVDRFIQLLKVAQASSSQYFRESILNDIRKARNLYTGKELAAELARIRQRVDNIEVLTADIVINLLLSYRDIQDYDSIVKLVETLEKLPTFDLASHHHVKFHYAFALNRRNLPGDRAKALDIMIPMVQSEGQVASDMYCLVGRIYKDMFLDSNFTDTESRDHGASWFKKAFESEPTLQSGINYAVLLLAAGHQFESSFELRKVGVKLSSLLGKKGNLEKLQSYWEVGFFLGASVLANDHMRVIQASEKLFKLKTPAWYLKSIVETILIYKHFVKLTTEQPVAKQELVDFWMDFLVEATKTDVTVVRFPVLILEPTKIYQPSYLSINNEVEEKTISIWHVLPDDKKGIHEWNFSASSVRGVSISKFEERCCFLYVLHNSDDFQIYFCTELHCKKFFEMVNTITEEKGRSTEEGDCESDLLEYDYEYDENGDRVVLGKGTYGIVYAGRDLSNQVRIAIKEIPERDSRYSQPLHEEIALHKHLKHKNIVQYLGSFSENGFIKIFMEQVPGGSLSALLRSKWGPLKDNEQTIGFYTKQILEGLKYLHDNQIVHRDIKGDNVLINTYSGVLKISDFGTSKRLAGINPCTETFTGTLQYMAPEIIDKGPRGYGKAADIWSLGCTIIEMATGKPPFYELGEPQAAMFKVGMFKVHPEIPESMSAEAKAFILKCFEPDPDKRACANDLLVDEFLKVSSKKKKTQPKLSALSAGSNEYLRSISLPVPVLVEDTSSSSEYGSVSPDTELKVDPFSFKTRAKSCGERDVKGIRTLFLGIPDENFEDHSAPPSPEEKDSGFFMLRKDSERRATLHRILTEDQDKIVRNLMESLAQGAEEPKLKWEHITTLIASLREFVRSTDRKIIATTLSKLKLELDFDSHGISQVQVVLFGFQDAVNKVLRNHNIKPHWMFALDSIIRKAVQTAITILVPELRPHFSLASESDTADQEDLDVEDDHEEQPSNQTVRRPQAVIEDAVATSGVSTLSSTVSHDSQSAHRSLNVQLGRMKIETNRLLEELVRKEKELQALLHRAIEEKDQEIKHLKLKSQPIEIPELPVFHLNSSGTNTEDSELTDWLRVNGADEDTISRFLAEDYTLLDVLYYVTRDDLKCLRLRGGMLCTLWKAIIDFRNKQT
In short: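 HEK293T-AP1 cells transfected with hASK1, after 24 h treated with compounds for 24 h (0.2% DMSO), then stimulated with 1 mM H2O2 for 1 h with compounds present.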

| IC50 (recombinant ASK1) [nM] | IC50 (Human ASK1) [nM] | SMILES |
| --- | --- | --- |
| < 50 | < 100 | CC(C)n1cnnc1-c1cccc(N2CCN(c3ccc(N4CC(C#N)C4)nc3)C2=O)n1 [Example 1107, 1-(5-(3-(6-(4-isopropyl-4H-1,2,4-triazol-3-yl)pyridin-2-yl)-2-oxoimidazolidin-1-yl)pyridin-2-yl)azetidine-3-carbonitrile] |
| < 100 | > 100 | CC(C)n1cnnc1-c1cccc(N2CCN(c3ccc(N4[C@H](C)COC[C@@H]4C)cc3)C2=O)n1 [Example 1085, 1-(6-(4-isopropyl-4H-1,2,4-triazol-3-yl)pyridin-2-yl)-3-(4-((3R,5S)-3,5-dimethylmorpholino)phenyl)imidazolidin-2-one] |
| < 100 | > 1000 | CC(C)n1cnnc1-c1cccc(N2CCN(c3ccc(N4CC(C(N)=O)C4)nc3)C2=O)n1 [Example 1115, 1-(5-(3-(6-(4-isopropyl-4H-1,2,4-triazol-3-yl)pyridin-2-yl)-2-oxoimidazolidin-1-yl)pyridin-2-yl)azetidine-3-carboxamide] |

The next lines start with the molecule.

| SMILES | IC50 (recombinant ASK1) [nM] | IC50 (Human ASK1) [nM] |
| --- | --- | --- |
| CC(C)n1cnnc1-c1cccc(N2CCN(c3ccc(C(=O)C4CC4)cc3)C2=O)n1 [Example 1037, 1-(4-(cyclopropanecarbonyl)phenyl)-3-(6-(4-isopropyl-4H-1,2,4-triazol-3-yl)pyridin-2-yl)imidazolidin-2-one] | < 100 | < 1000 |
| CC(C)n1cnnc1-c1cccc(N2CCN(c3cccc(-c4cnn(S(C)(=O)=O)c4)c3)C2=O)n1 [Example 1014, 1-(6-(4-isopropyl-4H-1,2,4-triazol-3-yl)pyridin-2-yl)-3-(3-(1-(methylsulfonyl)-1H-pyrazol-4-yl)phenyl)imidazolidin-2-one] | > 100 | > 10000 |
| CNC(=O)C1CC2CCC(C1)N2c1ccc(N2CCN(c3cccc(-c4nncn4C(C)C)n3)C2=O)cc1 (centres unmarked) [Example 1140, 8-(4-(3-(6-(4-isopropyl-4H-1,2,4-triazol-3-yl)pyridin-2-yl)-2-oxoimidazolidin-1-yl)phenyl)-N-methyl-8-aza-bicyclo[3.2.1]octane-3-carboxamide] | < 50 | < 100 |
| CC(C)n1cnnc1-c1cccc(N2CCN(c3ccc(C#N)cc3)C2=O)n1 [Example 1035, 4-(3-(6-(4-isopropyl-4H-1,2,4-triazol-3-yl)pyridin-2-yl)-2-oxoimidazolidin-1-yl)benzonitrile] | < 100 | > 10000 |
| CC(CC#N)n1cnnc1-c1cccc(N2CCN(c3ccc(S(C)(=O)=O)cc3)C2=O)n1 (centres unmarked) [Example 1053, 3-(3-(6-(3-(4-(methylsulfonyl)phenyl)-2-oxoimidazolidin-1-yl)pyridin-2-yl)-4H-1,2,4-triazol-4-yl)butanenitrile] | < 100 | > 1000 |
| COCCS(=O)(=O)c1ccc(N2CCN(c3cccc(-c4nncn4C(C)C)n3)C2=O)cc1 [Example 1050, 1-(4-(2-methoxyethylsulfonyl)phenyl)-3-(6-(4-isopropyl-4H-1,2,4-triazol-3-yl)pyridin-2-yl)imidazolidin-2-one] | < 100 | > 1000 |
| CC(C)n1cnnc1-c1cccc(N2CCN(c3cccc(-c4ccc(S(C)(=O)=O)cc4)c3)C2=O)n1 [Example 1007, 1-(6-(4-isopropyl-4H-1,2,4-triazol-3-yl)pyridin-2-yl)-3-(4′-(methylsulfonyl)-[1,1′-biphenyl]-3-yl)imidazolidin-2-one] | 30 | > 1000 |
